{"source": "patent US20250353827A1", "about": "“INDOLINE DERIVATIVES AS SEROTONERGIC AGENTS USEFUL FOR THE TREATMENT OF DISORDERS RELATED THERETO” (MINDSET PHARMA INC., priority 2022, published 2025)", "key": {"[1]": {"target": "T1, human 5-HT2A (h5-HT2A) receptor (Homo sapiens, UniProt P28223)", "T1 construct": "expressed in transfected cells; cultured under G418 and hygromycin B selection", "T1 sequence (P28223 whole entry)": "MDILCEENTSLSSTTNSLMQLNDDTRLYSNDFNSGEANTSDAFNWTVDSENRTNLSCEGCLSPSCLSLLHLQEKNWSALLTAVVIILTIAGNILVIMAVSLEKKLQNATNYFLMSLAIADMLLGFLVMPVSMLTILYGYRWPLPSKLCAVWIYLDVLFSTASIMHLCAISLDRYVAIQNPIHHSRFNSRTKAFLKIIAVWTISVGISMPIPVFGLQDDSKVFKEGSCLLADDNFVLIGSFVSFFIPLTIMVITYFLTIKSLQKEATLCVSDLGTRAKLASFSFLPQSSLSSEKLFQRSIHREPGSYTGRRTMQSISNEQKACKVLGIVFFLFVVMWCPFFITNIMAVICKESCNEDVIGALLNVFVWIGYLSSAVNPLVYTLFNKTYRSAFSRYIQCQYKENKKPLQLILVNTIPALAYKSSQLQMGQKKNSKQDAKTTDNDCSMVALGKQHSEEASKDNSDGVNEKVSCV", "test": "FLIPR assay, human 5-HT2A receptor under agonist mode", "assay_type": "cell-based", "conditions": "5-HT2A (FLIPR); for RFU@10 μM: RFU=Fmax−Fmin; for EC50: read-out: EC50", "protocol": "I. Assessment of the Effect of Exemplary Compounds of Formula I Targeting on Human 5-HT2A (h5-HT2A) Receptor Under Agonist Mode\n• 1. Cells were cultured in cell culture medium (DMEM containing 10% FBS, 1×penicillin-streptomycin 300 μg/ml G418 and 100 μg/ml hygromycin B) at 37° C., 5% (v/v) CO2. • 2. One day before the assays, the cells were detached using TrypLE™ Express and cells were counted using cell counter. Only cells with >85% viability were used for the assay. • 3. 20000 cells/well were seeded in 30 μl/well culture medium to a 384-well cell plate and cells were incubated overnight at 37° C., 5% (v/v) CO2. • 4. On the assay day, 2×dye solution was prepared following the manual of the FLIPR® Calcium 6 Assay Kit: i. The dye was diluted with assay buffer (20 mM HEPES in 1× HBSS, PH7.4); ii. Probenecid was added to the final concentration of 5 mM; iii. Vortex vigorously for 1-2 minutes. • 5. Medium was removed from cell plate by flicking the cell plate on towel papers. • 6. 10 μl of assay buffer and 10 μl of 2×dye solution was added to each well of the cell plate. • 7. The cell plate was placed on plate shaker, the plate was agitated at 600 rpm for 2 minutes. The plate was incubated at 37° C. for 2 hours followed by additional 15-minute incubation at 25° C. • 8. 3×compound in assay buffer was prepared: a. Reference compounds were diluted to required concentration with DMSO. The compounds were added to a 384-well compound plate; b. Serial dilutions were performed; c. 10 mM test compounds were added to the compound plate, and 3-fold serial dilutions were performed. d. Transfer 60 nl/well of compounds from source plate to a 384-well compound plate (Corning, 3657) by using an Echo; e. Add 20 μl/well assay buffer to the compound plate; f. Mix the plate on plate shaker for 2 mins; • 9. The cell plate, compound plate and tips were put into FLIPR, 10 μl of 3× compound was transferred to the cell plate per well with FLIPR.\n• i. The normalized fluorescence reading (RFU) was calculated as shown below, where Fmax and Fmin stand for maximum and minimum of calcium signal during defined time window: RFU=Fmax−Fmin. • ii. Calculate the percentage activation using following equation:\n[formula] • Iii. Calculate EC50 by fitting % activation against log of compound concentrations with Hill equation using XLfit.\nExemplary compounds of Formula I were evaluated functionally using FLIPR assay for their effect on h5-HT2A receptor under agonist mode."}, "[2]": {"test": "Liver microsomes stability, mouse", "conditions": "for CLint scaled at 2 μM / half-life at 2 μM / microsomal CLint at 2 μM: male, microsomes; for CLint scaled at 2 μM / half-life at 2 μM / microsomal CLint at 2 μM / Remaining Percentage: mouse; for Predicted hepatic CL: mouse liver microsomes", "protocol": "(§1) The objective of this study was to estimate in vitro metabolic stability of representative compounds of the application in pooled human and male mouse liver microsomes. The concentrations of parent compounds in reaction systems were evaluated by LC-MS/MS for estimating the stability in pooled human and male mouse liver microsomes. The in vitro intrinsic clearances of test compounds were determined as well.\n(§2) A master solution in the “Incubation Plate” containing phosphate buffer, ultra-pure H2O, MgCl2 solution and liver microsomes was made according to Table 3. The mixture was pre-warmed at 37° C. water bath for 5 minutes.\n(§3) 40 μL of 10 mM NADPH solution was added to each well. The final concentration of NADPH was 1 mM. The negative control samples were prepared by replacing NADPH with 40 μL of ultra-pure H2O. Samples were prepared in duplicate. Negative controls were prepared in singlet.\n(§4) The reaction was started with the addition of 4 μL of 200 μM test compounds or control compounds to each master solution to get the final concentration of 2 μM. This study was performed in duplicate.\n(§5) Aliquots of 50 μL were taken from the reaction solution at 0, 15, 30, 45 and 60 minutes. The reaction solutions were stopped by the addition of 4 volumes of cold methanol with IS (100 nM alprazolam, 200 nM imipramine, 200 nM labetalol and 2 μM ketoprofen). Samples were centrifuged at 3,220 g for 40 minutes. Aliquot of 90 μL of the supernatant was mixed with 90 μL of ultra-pure H2O and then was used for LC-MS/MS analysis.\n(§6) LC/MS analysis was performed for all samples from this study using a Shimadzu liquid chromatograph separation system equipped with degasser DGU-20A5R; solvent delivery unit LC-30AD; system controller SIL-30AC; column oven CTO-30A; CTC Analytics HTC PAL System. Mass spectrometric analysis was performed using a Triple Quad™ 5500 instrument.\n(§7) All calculations were carried out using Microsoft Excel. Peak areas were determined from extracted ion chromatograms. The slope value, k, was determined by linear regression of the natural logarithm of the remaining percentage of the parent drug vs. incubation time curve.\n(§8) The in vitro half-life (in vitro t1/2) was determined from the slope value:\n(§9) Conversion of the in vitro t1/2 (min) into the in vitro intrinsic clearance (in vitro CLint, in μL/min/mg proteins) was done using the following equation (mean of duplicate determinations): […]"}, "[3]": {"test": "Liver microsomes stability, human", "conditions": "for Predicted hepatic CL: human liver microsomes; for Remaining Percentage / CLint scaled at 2 μM / half-life at 2 μM / microsomal CLint at 2 μM: human; for CLint scaled at 2 μM / half-life at 2 μM / microsomal CLint at 2 μM: pooled liver microsomes", "protocol": "as §1, §2, §3, §4, §5, §6, §7, §8, §9"}, "[4]": {"test": "Liver microsomes stability, rat", "conditions": "rat; for CLint scaled at 2 μM / Predicted hepatic CL / half-life at 2 μM / microsomal CLint at 2 μM: liver microsomes"}}, "data": [{"smiles": "CN(C)CCC1CNc2ccccc21", "note": "(stereo not shown) [II-2, 2-(Indolin-3-yl)-N,N-dimethylethan-1-amine]", "values": [{"measurement": "RFU@10 μM", "setting": "[1]", "result": 544}, {"measurement": "EC50", "setting": "[1]", "result": 1230, "unit": "nM"}, {"measurement": "CLint scaled at 2 μM", "setting": "[2]", "result": 165, "unit": "mL/min/kg"}, {"measurement": "half-life at 2 μM", "setting": "[2]", "result": 36.7, "unit": "min"}, {"measurement": "microsomal CLint at 2 μM", "setting": "[2]", "result": 37.7, "unit": "µL/min/mg"}, {"measurement": "Predicted hepatic CL", "setting": "[2]", "result": 58.25, "unit": "mL/min/kg"}, {"measurement": "Remaining Percentage", "setting": "[2]; With NADPH, 0 min", "result": 100.00, "unit": "%"}, {"measurement": "Remaining Percentage", "setting": "[2]; With NADPH, 30 min", "result": 57.37, "unit": "%"}, {"measurement": "Remaining Percentage", "setting": "[2]; With NADPH, 60 min", "result": 32.23, "unit": "%"}, {"measurement": "Remaining Percentage", "setting": "[2]; Without NADPH, 0 min", "result": 100.00, "unit": "%"}, {"measurement": "Remaining Percentage", "setting": "[2]; Without NADPH, 30 min", "result": 99.08, "unit": "%"}, {"measurement": "Remaining Percentage", "setting": "[2]; Without NADPH, 60 min", "result": 86.24, "unit": "%"}, {"measurement": "Predicted hepatic CL", "setting": "[3]", "result": 9.09, "unit": "mL/min/kg"}, {"measurement": "Remaining Percentage", "setting": "[3]; With NADPH, 0 min", "result": 100.00, "unit": "%"}, {"measurement": "Remaining Percentage", "setting": "[3]; With NADPH, 30 min", "result": 87.48, "unit": "%"}, {"measurement": "Remaining Percentage", "setting": "[3]; With NADPH, 60 min", "result": 67.85, "unit": "%"}, {"measurement": "Remaining Percentage", "setting": "[3]; Without NADPH, 0 min", "result": 100.00, "unit": "%"}, {"measurement": "Remaining Percentage", "setting": "[3]; Without NADPH, 30 min", "result": 100.69, "unit": "%"}, {"measurement": "Remaining Percentage", "setting": "[3]; Without NADPH, 60 min", "result": 86.47, "unit": "%"}, {"measurement": "CLint scaled at 2 μM", "setting": "[3]", "result": 16.2, "unit": "mL/min/kg"}, {"measurement": "half-life at 2 μM", "setting": "[3]", "result": 107, "unit": "min"}, {"measurement": "microsomal CLint at 2 μM", "setting": "[3]", "result": 12.9, "unit": "µL/min/mg"}, {"measurement": "Remaining Percentage", "setting": "[4]; With NADPH, 0 min", "result": 100.00, "unit": "%"}, {"measurement": "Remaining Percentage", "setting": "[4]; With NADPH, 30 min", "result": 26.32, "unit": "%"}, {"measurement": "Remaining Percentage", "setting": "[4]; With NADPH, 60 min", "result": 10.29, "unit": "%"}, {"measurement": "Remaining Percentage", "setting": "[4]; Without NADPH, 0 min", "result": 100.00, "unit": "%"}, {"measurement": "Remaining Percentage", "setting": "[4]; Without NADPH, 30 min", "result": 92.41, "unit": "%"}, {"measurement": "Remaining Percentage", "setting": "[4]; Without NADPH, 60 min", "result": 83.54, "unit": "%"}, {"measurement": "CLint scaled at 2 μM", "setting": "[4]", "result": 136, "unit": "mL/min/kg"}, {"measurement": "Predicted hepatic CL", "setting": "[4]", "result": 39.25, "unit": "mL/min/kg"}, {"measurement": "half-life at 2 μM", "setting": "[4]", "result": 18.3, "unit": "min"}, {"measurement": "microsomal CLint at 2 μM", "setting": "[4]", "result": 75.8, "unit": "µL/min/mg"}]}, {"smiles": "[2H]C([2H])([2H])Oc1ccc2c(c1)C(CCN(C)C)CN2", "note": "(stereo not shown) [Compound I-11, 2-(5-(Methoxy-d3)indolin-3-yl)-N,N-dimethylethan-1-amine]", "values": [{"measurement": "RFU@10 μM", "setting": "[1]", "result": 980}, {"measurement": "EC50", "setting": "[1]", "result": 19, "unit": "nM"}, {"measurement": "CLint scaled at 2 μM", "setting": "[2]", "result": 334, "unit": "mL/min/kg"}, {"measurement": "half-life at 2 μM", "setting": "[2]", "result": 18.2, "unit": "min"}, {"measurement": "microsomal CLint at 2 μM", "setting": "[2]", "result": 76.3, "unit": "µL/min/mg"}, {"measurement": "Predicted hepatic CL", "setting": "[2]", "result": 70.89, "unit": "mL/min/kg"}, {"measurement": "Remaining Percentage", "setting": "[2]; With NADPH, 0 min", "result": 100.00, "unit": "%"}, {"measurement": "Remaining Percentage", "setting": "[2]; With NADPH, 30 min", "result": 31.50, "unit": "%"}, {"measurement": "Remaining Percentage", "setting": "[2]; With NADPH, 60 min", "result": 10.14, "unit": "%"}, {"measurement": "Remaining Percentage", "setting": "[2]; Without NADPH, 0 min", "result": 100.00, "unit": "%"}, {"measurement": "Remaining Percentage", "setting": "[2]; Without NADPH, 30 min", "result": 94.39, "unit": "%"}, {"measurement": "Remaining Percentage", "setting": "[2]; Without NADPH, 60 min", "result": 80.37, "unit": "%"}, {"measurement": "Predicted hepatic CL", "setting": "[3]", "result": 12.66, "unit": "mL/min/kg"}, {"measurement": "Remaining Percentage", "setting": "[3]; With NADPH, 0 min", "result": 100.00, "unit": "%"}, {"measurement": "Remaining Percentage", "setting": "[3]; With NADPH, 30 min", "result": 72.72, "unit": "%"}, {"measurement": "Remaining Percentage", "setting": "[3]; With NADPH, 60 min", "result": 45.89, "unit": "%"}, {"measurement": "Remaining Percentage", "setting": "[3]; Without NADPH, 0 min", "result": 100.00, "unit": "%"}, {"measurement": "Remaining Percentage", "setting": "[3]; Without NADPH, 30 min", "result": 97.58, "unit": "%"}, {"measurement": "Remaining Percentage", "setting": "[3]; Without NADPH, 60 min", "result": 92.20, "unit": "%"}, {"measurement": "CLint scaled at 2 μM", "setting": "[3]", "result": 32.6, "unit": "mL/min/kg"}, {"measurement": "half-life at 2 μM", "setting": "[3]", "result": 53.4, "unit": "min"}, {"measurement": "microsomal CLint at 2 μM", "setting": "[3]", "result": 26, "unit": "µL/min/mg"}, {"measurement": "Remaining Percentage", "setting": "[4]; With NADPH, 0 min", "result": 100.00, "unit": "%"}, {"measurement": "Remaining Percentage", "setting": "[4]; With NADPH, 30 min", "result": 22.43, "unit": "%"}, {"measurement": "Remaining Percentage", "setting": "[4]; With NADPH, 60 min", "result": 6.59, "unit": "%"}, {"measurement": "Remaining Percentage", "setting": "[4]; Without NADPH, 0 min", "result": 100.00, "unit": "%"}, {"measurement": "Remaining Percentage", "setting": "[4]; Without NADPH, 30 min", "result": 102.53, "unit": "%"}, {"measurement": "Remaining Percentage", "setting": "[4]; Without NADPH, 60 min", "result": 85.67, "unit": "%"}, {"measurement": "CLint scaled at 2 μM", "setting": "[4]", "result": 162, "unit": "mL/min/kg"}, {"measurement": "Predicted hepatic CL", "setting": "[4]", "result": 41.20, "unit": "mL/min/kg"}, {"measurement": "half-life at 2 μM", "setting": "[4]", "result": 15.3, "unit": "min"}, {"measurement": "microsomal CLint at 2 μM", "setting": "[4]", "result": 90.7, "unit": "µL/min/mg"}]}]}
